The record followed here is US6878713B2, “Generation triple-targeting, chiral, broad-spectrum antimicrobial 7-substituted piperidino-quinolone carboxylic acid derivatives, their preparation, compositions and use as medicaments” (Wockhardt Limited, priority 2001, dated 2005).

The structures appear in SMILES notation.

As a reminder, the melting point is the temperature, or range, at which the solid turns liquid. For the compound `CCc1c(N2CCC(N)CC2)c(F)cc2c(=O)c(C(=O)O)cn(C3CC3)c12` [Compound 117, 1-Cyclopropyl-6-fluoro-8-ethyl-7-(4-amino-1-piperidinyl)-1,4-dihydro-4-oxo-quinoline-3-carboxylic acid], the melting point was in the range of 248 to 249 °C.
Consider `COc1c(N2CC(C)C(NC3CC3)C(C)C2)c(F)c(N)c2c(=O)c(C(=O)O)cn(C3CC3)c12` (centres unmarked) [Example 60, 5-Amino-1-cyclopropyl-6-fluoro-1,4-dihydro-8-methoxy-7-(4-cyclopropylamino-3,5-dimethyl-1-piperidinyl)-4-oxo-quinoline-3-carboxylic acid], for which the melting point is 248 °C.
Next, `COc1c(N2CC(C)C(N)C(C)(C)C2)c(F)cc2c(=O)c(C(=O)O)cn(C3CC3)c12` (centres unmarked) [Compound 50, 1-Cyclopropyl-6-fluoro-1,4-dihydro-8-methoxy-7-(4-amino-3,3,5-trimethyl-1-piperidinyl)-4-oxo-quinoline-3-carboxylic acid]: 218 to 220 °C; `COc1c(N2CCC(N(C)C)C(C)C2)c(F)c(N)c2c(=O)c(C(=O)O)cn(C3CC3)c12` (centres unmarked) [Compound 63, 5-Amino-1-cyclopropyl-6-fluoro-1,4-dihydro-8-methoxy-7-(4-dimethylamino-3-methyl-1-piperidinyl)-4-oxo-quinoline-3-carboxylic acid]: 210 °C.
Then `CNC1CCN(c2c(F)c(N)c3c(=O)c(C(=O)O)cn(C4CC4)c3c2OC)CC1(C)C` (centres unmarked) [Compound 73, 5-Amino-1-cyclopropyl-6-fluoro-1,4-dihydro-8-methoxy-7-(4-methylamino-3,3-dimethyl-1-piperidinyl)-4-oxo-quinoline-3-carboxylic acid], with 250 °C (dec.); and `COc1c(N2CCC(N(C)C)C(C)(C)C2)c(F)c(N)c2c(=O)c(C(=O)O)cn(C3CC3)c12` (centres unmarked) [Compound 76, 5-Amino-1-cyclopropyl-6-fluoro-1,4-dihydro-8-methoxy-7-(4-dimethylamino-3,3-dimethyl-1-piperidinyl)-4-oxo-quinoline-3-carboxylic acid], with 178 °C (dec.); and `COc1c(N2CCC(N)C(C)(C)C2)c(F)c(N)c2c(=O)c(C(=O)O)cn(C3CC3)c12` (centres unmarked) [Compound 68, 5-Amino-1-cyclopropyl-6-fluoro-1,4-dihydro-8-methoxy-7-(4-amino-3,3-dimethyl-1-piperidinyl)-4-oxo-quinoline-3-carboxylic acid], with 205 °C.
Turning to `CNC1C(C)CN(c2c(F)cc3c(=O)c(C(=O)O)cn(C4CC4)c3c2OC)CC1C` (centres unmarked) [Compound 45, 1-Cyclopropyl-6-fluoro-1,4-dihydro-8-methoxy-7-(4-methylamino-3,5-dimethyl-1-piperidinyl)-4-oxo-quinoline-3-carboxylic acid], the melting point lay within 268 to 272 °C.
`CNC1CCN(c2c(F)cc3c(=O)c(C(=O)O)cn(C4CC4)c3c2OC)CC1(C)C` (centres unmarked) [Compound 35, 1-Cyclopropyl-6-fluoro-1,4-dihydro-8-methoxy-7-(4-methylamino-3,3-dimethyl-1-piperidinyl)-4-oxo-quinoline-3-carboxylic acid] came in with a melting point of 246 to 248 °C.
`COc1c(N2CCC(NC3CC3)C(C)C2)c(F)cc2c(=O)c(C(=O)O)cn(C3CC3)c12` (centres unmarked) [Compound 11, 1-Cyclopropyl-6-fluoro-1,4-dihydro-8-methoxy-7-(4-cyclopropylamino-3-methyl-1-piperidinyl)-4-oxo-quinoline-3-carboxylic acid] had a melting point of 182 to 184 °C.
The compound `CCNC1C(C)CN(c2c(F)c(N)c3c(=O)c(C(=O)O)cn(C4CC4)c3c2OC)CC1C` (centres unmarked) [Example 58, 5-amino-1-cyclopropyl-6-fluoro-1,4-dihydro-8-methoxy-7-(4-ethylamino-3,5-dimethyl-1-piperidinyl)-4-oxo-quinoline-3-carboxylic acid] displayed a melting point of 255 to 258 °C.
